Assay results taken from the NIST ThermoML archive (doi:10.1016/j.fluid.2004.09.013).
Numbers after ± are expanded uncertainties.

Details: for mass density: Fluid (supercritical or subcritical phases), Vibrating tube method

C=CCC [1-butene]
Details | Critical density [kg/m3] | mass density [kg/m3]
453.25 K, 9992 kPa | – | 366.88 ± 0.87
458.24 K, 5019 kPa | – | 127.66 ± 0.62
458.24 K, 14983 kPa | – | 409.67 ± 0.92
458.24 K, 20004 kPa | – | 440.23 ± 1
458.24 K, 29989 kPa | – | 478.1 ± 1.2
458.24 K, 34985 kPa | – | 491.83 ± 1.3
458.24 K, 39994 kPa | – | 503.63 ± 1.4
458.25 K, 9993 kPa | – | 354.52 ± 0.85
458.25 K, 25009 kPa | – | 461.51 ± 1.1
463.24 K, 5016 kPa | – | 120.75 ± 0.6
463.24 K, 14996 kPa | – | 401.9 ± 0.91
463.24 K, 19997 kPa | – | 433.9 ± 1
463.24 K, 25004 kPa | – | 456.08 ± 1.1
463.24 K, 30003 kPa | – | 473.27 ± 1.2
463.24 K, 34993 kPa | – | 487.39 ± 1.3
463.25 K, 9983 kPa | – | 341.52 ± 0.83
463.25 K, 39998 kPa | – | 499.47 ± 1.4
468.24 K, 5016 kPa | – | 115 ± 0.58
468.24 K, 9989 kPa | – | 328.56 ± 0.8
468.24 K, 14982 kPa | – | 393.76 ± 0.89
468.24 K, 19984 kPa | – | 427.48 ± 0.99
468.24 K, 24997 kPa | – | 450.6 ± 1.1
468.24 K, 30000 kPa | – | 468.38 ± 1.2
468.24 K, 35011 kPa | – | 482.95 ± 1.3
468.24 K, 39999 kPa | – | 495.31 ± 1.4
473.24 K, 5018 kPa | – | 110.27 ± 0.55
473.24 K, 9985 kPa | – | 315.25 ± 0.78
473.24 K, 19988 kPa | – | 421.13 ± 0.98
473.24 K, 24992 kPa | – | 445.14 ± 1.1
473.24 K, 29997 kPa | – | 463.51 ± 1.2
473.24 K, 35002 kPa | – | 478.49 ± 1.2
473.24 K, 39996 kPa | – | 491.17 ± 1.3
473.25 K, 14995 kPa | – | 385.74 ± 0.88
478.24 K, 5019 kPa | – | 106.11 ± 0.53
478.24 K, 9987 kPa | – | 302.04 ± 0.75
478.24 K, 14989 kPa | – | 377.47 ± 0.86
478.24 K, 19983 kPa | – | 414.69 ± 0.97
478.24 K, 24987 kPa | – | 439.66 ± 1.1
478.24 K, 30006 kPa | – | 458.68 ± 1.1
478.24 K, 35011 kPa | – | 474.08 ± 1.2
478.24 K, 39998 kPa | – | 487.02 ± 1.3
483.24 K, 5019 kPa | – | 102.43 ± 0.51
483.24 K, 9986 kPa | – | 289.02 ± 0.72
483.24 K, 14996 kPa | – | 369.24 ± 0.85
483.24 K, 19994 kPa | – | 408.37 ± 0.95
483.24 K, 24993 kPa | – | 434.22 ± 1.1
483.24 K, 30007 kPa | – | 453.8 ± 1.1
483.24 K, 35009 kPa | – | 469.63 ± 1.2
483.24 K, 39997 kPa | – | 482.92 ± 1.3
488.24 K, 5019 kPa | – | 99.18 ± 0.48
488.24 K, 9991 kPa | – | 276.55 ± 0.7
488.24 K, 14995 kPa | – | 361.05 ± 0.83
488.24 K, 20003 kPa | – | 402.02 ± 0.94
488.24 K, 24984 kPa | – | 428.73 ± 1
488.24 K, 29996 kPa | – | 448.96 ± 1.1
488.24 K, 35002 kPa | – | 465.2 ± 1.2
488.24 K, 39995 kPa | – | 478.82 ± 1.3
493.24 K, 5019 kPa | – | 96.24 ± 0.46
493.24 K, 9993 kPa | – | 264.66 ± 0.67
493.24 K, 14985 kPa | – | 352.7 ± 0.82
493.24 K, 19990 kPa | – | 395.6 ± 0.93
493.24 K, 24997 kPa | – | 423.36 ± 1
493.24 K, 30000 kPa | – | 444.14 ± 1.1
493.24 K, 35000 kPa | – | 460.8 ± 1.2
493.24 K, 39994 kPa | – | 474.74 ± 1.3
498.24 K, 5019 kPa | – | 93.59 ± 0.44
498.24 K, 9985 kPa | – | 253.12 ± 0.65
498.24 K, 14988 kPa | – | 344.51 ± 0.8
498.24 K, 19988 kPa | – | 389.08 ± 0.92
498.24 K, 25004 kPa | – | 417.97 ± 1
498.24 K, 30000 kPa | – | 439.33 ± 1.1
498.24 K, 35005 kPa | – | 456.43 ± 1.2
498.24 K, 39995 kPa | – | 470.68 ± 1.3
503.24 K, 5016 kPa | – | 91.1 ± 0.42
503.24 K, 9996 kPa | – | 242.88 ± 0.63
503.24 K, 14997 kPa | – | 336.49 ± 0.79
503.24 K, 19985 kPa | – | 382.45 ± 0.9
503.24 K, 25003 kPa | – | 412.55 ± 1
503.24 K, 29994 kPa | – | 434.51 ± 1.1
503.24 K, 34998 kPa | – | 452.04 ± 1.2
503.24 K, 39994 kPa | – | 466.64 ± 1.3
508.24 K, 5019 kPa | – | 88.94 ± 0.41
508.24 K, 9985 kPa | – | 232.83 ± 0.6
508.24 K, 14995 kPa | – | 328.41 ± 0.77
508.24 K, 20001 kPa | – | 376.3 ± 0.89
508.24 K, 25001 kPa | – | 407.17 ± 1
508.24 K, 29985 kPa | – | 429.72 ± 1.1
508.24 K, 34995 kPa | – | 447.71 ± 1.2
508.24 K, 39994 kPa | – | 462.63 ± 1.3
513.23 K, 19985 kPa | – | 369.92 ± 0.88
513.23 K, 35000 kPa | – | 443.43 ± 1.2
513.24 K, 5019 kPa | – | 86.9 ± 0.39
513.24 K, 9990 kPa | – | 224.06 ± 0.58
513.24 K, 14981 kPa | – | 320.32 ± 0.76
513.24 K, 24995 kPa | – | 401.8 ± 0.99
513.24 K, 30001 kPa | – | 425.05 ± 1.1
513.24 K, 39991 kPa | – | 458.64 ± 1.3
518.23 K, 5019 kPa | – | 85.01 ± 0.38
518.23 K, 14997 kPa | – | 312.76 ± 0.74
518.23 K, 19988 kPa | – | 363.73 ± 0.87
518.23 K, 25002 kPa | – | 396.53 ± 0.98
518.23 K, 30001 kPa | – | 420.37 ± 1.1
518.23 K, 35013 kPa | – | 439.18 ± 1.2
518.24 K, 9981 kPa | – | 215.7 ± 0.56
518.24 K, 39995 kPa | – | 454.74 ± 1.3
523.23 K, 5018 kPa | – | 83.27 ± 0.37
523.23 K, 9990 kPa | – | 208.53 ± 0.58
523.23 K, 14996 kPa | – | 305.24 ± 0.77
523.23 K, 19995 kPa | – | 357.64 ± 0.87
523.23 K, 25003 kPa | – | 391.29 ± 0.97
523.23 K, 30001 kPa | – | 415.71 ± 1.1
523.23 K, 35000 kPa | – | 434.96 ± 1.2
523.23 K, 40001 kPa | – | 450.86 ± 1.2
Liquid, visual observation in a variable volume cell:FP | 237.88 ± 4.8 | –

Liquid
Details | Critical pressure [kPa] | Critical temperature [K]
– | 4005.1 ± 11 | 419.29 ± 0.11
